Values belong to the compound of their own block, whether it stands above or below them.
How the values were obtained:
[1] = McMurry et al., J. Med. Chem. (1998), 41, 3546-3549; cited from earlier work
[2] = complex stability / complexing properties, comparison of stereoisomers; type: physicochemical; conditions: comparison of configurations (4S,8S)/(4R,8R) with (4S,8R)/(4R,8S)
Text: (§1) In this case, as was discovered, the configuration of methyl- and benzyl substituent must be present as (4S,8S) (see compound Va) or (4R,8R) (see compound Vb) to achieve the described positive effect.

[3] = compared to the unsubstituted DTPA; cited from earlier work
[4] = competition complexation: mixture of one equivalent each of Va, VIa and Gd(III) salt; type: physicochemical; conditions: one equivalent each of Va (R=-NO2)
Text: as §1

[5] = thermodynamic stability constant of the metal complex (logKY); type: physicochemical; conditions: in vitro
Text: as §1

[6] = radiotoxicity of the metal complex in vivo; conditions: compared to compound VIa
Text: as §1

Structure (SMILES): O=C(O)CN(CC(=O)O)[C@H](Cc1ccc([N+](=O)[O-])cc1)CN(CC(=O)O)[C@@H]1CCCC[C@H]1N(CC(=O)O)CC(=O)O [II]
- in-vitro and in-vivo stability [1]: higher in-vitro and in-vivo stability than compound III

Structure (SMILES): C[C@H](CN(CC(=O)O)C[C@@H](Cc1ccc([N+](=O)[O-])cc1)N(CC(=O)O)CC(=O)O)N(CC(=O)O)CC(=O)O [Vb, (R,R)-{[2-{[2-(Bis-carboxymethyl-amino)-propyl]-carboxymethyl-amino}-1-(4-nitro-benzyl)-ethyl]-carboxymethyl-amino}-acetic acid]
- complex stability / complexing properties (in words) [2]: considerably better complexing properties than compounds VIa and VIb

Structure (SMILES): CC(CN(CC(=O)O)C[C@H](Cc1ccc([N+](=O)[O-])cc1)N(CC(=O)O)CC(=O)O)N(CC(=O)O)CC(=O)O (stereo partly shown) [MX-DTPA]
- complex stability (in words) [3]: increased complex stability compared to the unsubstituted DTPA

- thermodynamic stability constant logKY [5]: 24.7±0.7
Structure (SMILES): C[C@@H](CN(CC(=O)O)C[C@H](Cc1ccc([N+](=O)[O-])cc1)N(CC(=O)O)CC(=O)O)N(CC(=O)O)CC(=O)O [Va]
- Gd complex formed in competition [4]: almost exclusively the Gd complex of compound Va is formed
- complex stability / complexing properties (in words) [2]: considerably better complexing properties than compounds VIa and VIb
- radiotoxicity of the metal complex [6]: reduced in vivo compared to compound VIa

Source: US20040208828A1, “Enantiomer-pure (4S,8S)- and (4R,8R)-4-p-nitrobenzyl-8-methyl-3,6,9-triaza-3N,6N,9N-tricarboxymethyl-1,11-undecanedioic acid and derivatives thereof, process for their production and use for the production of pharmaceutical agents” (priority 2003, published 2004)
